Measurements published in patent US20250101039A1, “RIFAMYCIN DERIVATIVES FOR THE TREATMENT OF DISEASES” (priority 2022, published 2025).
In brackets after ≈: the same amount, converted by molar mass. Several values for one entry are separate records, joined by “and”; a condition that tells them apart may be missing. Identical values can stand only once. Like-named read-outs stand apart in the source and are kept apart here.

Legend:
[1] = system: A. baumannii RpoB H535C; assay: microbe, parasite or virus in culture; type: cell-based, Acinetobacter baumannii; details: for MIC: Acinetobacter baumannii, RPOBH535C
[2] = system: Staphylococcus epidermidis (strain ATCC 12228); assay: MIC by broth microdilution, S. epidermidis; type: cell-based; details: strain ATCC 12228, cation adjusted Mueller Hinton broth
[3] = system: Enterococcus faecium (strain NCTC 12204); assay: MIC by broth microdilution, E. faecium; type: cell-based; details: strain NCTC 12204, cation adjusted Mueller Hinton broth
[4] = system: S. pneumoniae (strain ATCC 49619); assay: MIC by broth microdilution, S. pneumoniae; type: cell-based, Streptococcus pneumoniae; details: strain ATCC 49619, cation adjusted Mueller Hinton broth + 5% laked horse blood
[5] = system: M. smegmatis (strain ATCC 700084); assay: MIC, M. smegmatis (BacTiter-Glo); type: cell-based, Mycobacterium smegmatis; details: strain ATCC 700084, Middlebrook 7H9 + ADC, 90% growth inhibition, 20 hours
[6] = system: A. baumannii RpoB S583L; assay: microbe, parasite or virus in culture; type: cell-based, Acinetobacter baumannii
[7] = system: H. influenzae (strain ATCC 49247); assay: MIC by broth microdilution, H. influenzae; type: cell-based, Hemophilus influenzae; details: strain ATCC 49247, Hemophilus test medium broth
[8] = system: Enterococcus faecalis (strain ATCC 51575); assay: MIC by broth microdilution, E. faecalis; type: cell-based; details: strain ATCC 51575, cation adjusted Mueller Hinton broth
[9] = system: A. baumannii RpoB I581M; assay: microbe, parasite or virus in culture; type: cell-based, Acinetobacter baumannii
[10] = system: A. baumannii RpoB H535Q; assay: microbe, parasite or virus in culture; type: cell-based, Acinetobacter baumannii; details: for MIC: Acinetobacter baumannii, RPOBH535Q
[11] = system: A. baumannii; assay: MIC by broth microdilution, A. baumannii (WT); type: cell-based, Acinetobacter baumannii; details: for MIC A. baumannii: RPMI medium supplemented with 10% FCS, 35° C. 20 hours; for A. baumannii MIC, WT: Table 4, RPMI + FCS
[12] = system: M. tuberculosis (H37Rv strain ATCC 27294); type: cell-based, Mycobacterium tuberculosis
[13] = system: M. abscessus (strain ATCC 19977); assay: MIC by broth microdilution, M. abscessus; type: cell-based, Mycobacterium abscessus; details: strain ATCC 19977, Middlebrook 7H9 broth + ADC
[14] = system: A. baumannii RpoB N527D; assay: microbe, parasite or virus in culture; type: cell-based, Acinetobacter baumannii
[15] = system: S. pyogenes (strain IHMA 1117021); assay: MIC by broth microdilution, S. pyogenes; type: cell-based, Streptococcus pyogenes; details: strain IHMA 1117021, cation adjusted Mueller Hinton broth + 5% laked horse blood
[16] = system: A. baumannii RpoB H535L; assay: microbe, parasite or virus in culture; type: cell-based, Acinetobacter baumannii; details: for MIC: Acinetobacter baumannii, RPOBH535L
[17] = system: A. baumannii RpoB H535Q/S521T; assay: microbe, parasite or virus in culture; type: cell-based, Acinetobacter baumannii
[18] = system: A. baumannii RpoB L542F; assay: microbe, parasite or virus in culture; type: cell-based, Acinetobacter baumannii; details: for MIC: Acinetobacter baumannii, RPOBL542F
[19] = system: S. aureus; assay: MIC by broth microdilution, S. aureus; type: cell-based, Staphylococcus aureus; details: cation adjusted Mueller Hinton broth, 35° C. 20 hours

Compound: CO[C@H]1/C=C/O[C@@]2(C)Oc3c(C)c(O)c4c(c3C2=O)C2=NC3(NC2=C(NC(=O)/C(C)=C\C=C\[C@H](C)[C@H](O)[C@@H](C)[C@@H](O)[C@@H](C)[C@H](OC(C)=O)[C@@H]1C)C4=O)C1CC2CC3CN(C2)C1 (some centres unmarked) [Compound 3B]
- A. baumannii MIC, RpoB H535C [1]: ≤0.002 µg/mL
- MIC S. epidermidis [2]: < 0.002 µg/mL
- MIC E. faecium [3]: 0.03 µg/mL (≈ 0.0356 µM)
- MIC S. pneumoniae [4]: < 0.002 µg/mL
- MIC M. smegmatis [5]: 0.65 µg/mL
- MIC, RpoB mutation S583L [6]: ≤0.002 µg/mL
- MIC H. influenzae [7]: 0.125 µg/mL (≈ 0.148 µM)
- MIC E. faecalis [8]: 0.5 µg/mL (≈ 0.593 µM)
- MIC, RpoB mutation I581M [9]: ≤0.002 µg/mL
- A. baumannii MIC, RpoB H535Q [10]: ≤0.002 µg/mL
- MIC A. baumannii [11]: < 0.002 µg/mL
- A. baumannii MIC, WT [11]: ≤0.002 µg/mL
- MIC M. tuberculosis [12]: 0.01 µg/mL (≈ 0.0119 µM)
- MIC M. abscessus [13]: 8 µg/mL
- MIC, RpoB mutation N527D [14]: ≤0.002 µg/mL
- MIC S. pyogenes [15]: < 0.002 µg/mL
- A. baumannii MIC, RpoB H535L [16]: 0.016 µg/mL
- MIC, RpoB mutation H535Q/S521T [17]: 1 µg/mL and 0.5 µg/mL

Compound: CO[C@H]1/C=C/O[C@@]2(C)Oc3c(C)c(O)c4c(c3C2=O)C2=NC3(CC5CCC(C3)N5)NC2=C(NC(=O)/C(C)=C\C=C\[C@H](C)[C@H](O)[C@@H](C)[C@@H](O)[C@@H](C)[C@H](OC(C)=O)[C@@H]1C)C4=O (single isomer, unassigned) [Compound 12B]
- A. baumannii MIC, RpoB H535C ([1]; Table 4, RPMI + FCS): ≤0.002 µg/mL
- MIC S. epidermidis [2]: < 0.002 µg/mL
- MIC E. faecium [3]: 0.03 µg/mL (≈ 0.0367 µM)
- MIC S. pneumoniae [4]: < 0.002 µg/mL
- MIC, RpoB mutation L542F [18]: 0.002 µg/mL (≈ 0.00245 µM)
- MIC S. aureus [19]: 0.016 µg/mL (≈ 0.0196 µM)
- MIC M. smegmatis [5]: 0.32 µg/mL
- MIC, RpoB mutation S583L ([6]; Table 5 part 3 c4, clinical isolate, RPMI + 10% FCS): 0.004 µg/mL
- MIC H. influenzae [7]: 0.06 µg/mL (≈ 0.0734 µM)
- MIC E. faecalis [8]: 0.125 µg/mL (≈ 0.153 µM)
- MIC, RpoB mutation I581M ([9]; Table 5 part 1 c1, clinical isolate, RPMI + 10% FCS): 0.004 µg/mL
- A. baumannii MIC, RpoB H535Q ([10]; Table 4, RPMI + FCS): ≤0.002 µg/mL
- MIC A. baumannii [11]: < 0.002 µg/mL
- A. baumannii MIC, WT [11]: ≤0.002 µg/mL
- MIC M. tuberculosis [12]: 0.01 µg/mL (≈ 0.0122 µM)
- MIC M. abscessus [13]: 8 µg/mL
- MIC, RpoB mutation N527D ([14]; Table 5 part 3 c5, clinical isolate, RPMI + 10% FCS): ≤0.002 µg/mL
- MIC S. pyogenes [15]: < 0.002 µg/mL
- A. baumannii MIC, RpoB H535L ([16]; Table 4, RPMI + FCS): 0.03 µg/mL
- MIC, RpoB mutation H535Q/S521T [17]: 0.5 µg/mL and 1 µg/mL

Compound: CO[C@H]1/C=C/O[C@@]2(C)Oc3c(C)c(O)c4c(O)c(c(/C=N/N5CCN(C)CC5)c(O)c4c3C2=O)NC(=O)/C(C)=C\C=C\[C@H](C)[C@H](O)[C@@H](C)[C@@H](O)[C@@H](C)[C@H](OC(C)=O)[C@@H]1C [Rifampicin, reference compound]
- MIC ([1]; read-out: A. baumannii MIC, RpoB H535C, Table 4, cation-adjusted Mueller Hinton broth (rifampicin)): > 32 µg/mL
- MIC ([1]; read-out: MIC, RpoB mutation H535C, Table 5 part 2 c2, 2nd H535C isolate, cation-adjusted Mueller Hinton broth (rifampicin)): > 32 µg/mL
- MIC ([1]; read-out: MIC, RpoB mutation H535C, Table 5 part 2 c3, 3rd H535C isolate, cation-adjusted Mueller Hinton broth (rifampicin)): > 32 µg/mL
- MIC ([1]; read-out: MIC, RpoB mutation H535C, Table 5 part 2 c4, 4th H535C isolate, cation-adjusted Mueller Hinton broth (rifampicin)): > 32 µg/mL
- MIC ([2]; Staphylococcus epidermidis, ATCC12228, read-out: MIC S. epidermidis): ≤ 2 µg/mL
- MIC ([3]; Enterococcus faecium, NCTC12204, read-out: MIC E. faecium): 500 µg/mL (≈ 608 µM)
- MIC ([18]; read-out: MIC, RpoB mutation L542F, Table 5 part 3 c2, 1st L542F isolate, cation-adjusted Mueller Hinton broth (rifampicin)): 8 µg/mL (≈ 9.72 µM)
- MIC ([18]; read-out: MIC, RpoB mutation L542F, Table 5 part 3 c3, 2nd L542F isolate, cation-adjusted Mueller Hinton broth (rifampicin)): 8 µg/mL (≈ 9.72 µM)
- MIC ([6]; Acinetobacter baumannii, RPOBS583L, read-out: MIC, RpoB mutation S583L): > 32 µg/mL
- MIC ([7]; Haemophilus influenzae, ATCC49247, read-out: MIC H. influenzae): 250 µg/mL (≈ 304 µM)
- MIC ([8]; Enterococcus faecalis, ATCC51575, read-out: MIC E. faecalis): 1000 µg/mL (≈ 1220 µM)
- MIC ([9]; Acinetobacter baumannii, RPOBI581M, read-out: MIC, RpoB mutation I581M): > 32 µg/mL
- MIC ([10]; read-out: A. baumannii MIC, RpoB H535Q, Table 4, cation-adjusted Mueller Hinton broth (rifampicin)): > 32 µg/mL
- MIC ([10]; read-out: MIC, RpoB mutation H535Q, Table 5 part 1 c2, 1st H535Q isolate, cation-adjusted Mueller Hinton broth (rifampicin)): > 32 µg/mL
- MIC ([10]; read-out: MIC, RpoB mutation H535Q, Table 5 part 1 c3, 2nd H535Q isolate, cation-adjusted Mueller Hinton broth (rifampicin)): > 32 µg/mL
- MIC ([10]; read-out: MIC, RpoB mutation H535Q, Table 5 part 1 c4, 3rd H535Q isolate, cation-adjusted Mueller Hinton broth (rifampicin)): > 32 µg/mL
- MIC ([11]; Acinetobacter baumannii, Table 4, cation-adjusted Mueller Hinton broth (rifampicin), read-out: A. baumannii MIC, WT): 8 µg/mL (≈ 9.72 µM)
- MIC ([14]; Acinetobacter baumannii, RPOBN527D, read-out: MIC, RpoB mutation N527D): > 32 µg/mL
- MIC ([16]; read-out: A. baumannii MIC, RpoB H535L, Table 4, cation-adjusted Mueller Hinton broth (rifampicin)): > 32 µg/mL
- MIC ([16]; read-out: MIC, RpoB mutation H535L, Table 5 part 2 c5, 1st H535L isolate, cation-adjusted Mueller Hinton broth (rifampicin)): > 32 µg/mL
- MIC ([16]; read-out: MIC, RpoB mutation H535L, Table 5 part 2 c6, 2nd H535L isolate, cation-adjusted Mueller Hinton broth (rifampicin)): > 32 µg/mL
- MIC ([16]; read-out: MIC, RpoB mutation H535L, Table 5 part 3 c1, 3rd H535L isolate, cation-adjusted Mueller Hinton broth (rifampicin)): > 32 µg/mL
- MIC ([16]; read-out: MIC, RpoB mutation H535L, Table 5 part 3 c6, 4th H535L isolate, cation-adjusted Mueller Hinton broth (rifampicin)): > 32 µg/mL
- MIC ([16]; read-out: MIC, RpoB mutation H535L, Table 5 part 3 c7, 5th H535L isolate, cation-adjusted Mueller Hinton broth (rifampicin)): > 32 µg/mL
